The test system of series [1] is tumor cells of the colon-rectum in advanced phase. The following applies: therapy based on 5FU; cited from earlier work.
The test system of series [2] is HCT116p53KO cells. The following applies: 200 μM 5FU, 20 μM ibrutinib, singly or combined, 72 hr.
In a further series the test system is HCT116p53KO xenografts. Briefly: Subcutaneous xenograft, drug-resistant tumors. The following applies: for average volume of the tumor masses: after 28 days, 5FU 60 mg/kg i.p. twice a week, alone or combined, control ≈955.
The test system of another series is HCT116 xenografts. Kind of series: Subcutaneous xenograft, drug-sensitive tumors. The following applies: for increase of the tumor doubling time / reduction in the tumor volume: 5FU versus untreated or ibrutinib-treated group p<0.05; for average volume of the tumor masses: after 28 days, alone or combined, control ≈435.
The test system of series [3] is HCT116 overexpressing p65BTK (HCT116-p65BTK). The following applies: 200 μM 5FU, 72 hr. As to the method: (§1) Viability was evaluated after 72 hr of incubation by calcein assay. 100% represent the percentage of living cells at day 0, before starting treatment with the drugs. […] At the end of the treatment, cell viability was evaluated by calcein assay. 100% represent the percentage of living cells at day 0, before starting treatment with the drugs.

Series [4] relates to HCT116p53KO, DLD-1 and SW480 cell lines. Kind of series: cells. The following applies: Homo sapiens, 72 h, read-out: cell mortality. The method, then:
The tumor cell line initially used was HCT116p53KO (which differs from the wild type (wt) HCT116 due to the lack of gene p53), related to the colon tumor, while further detailed studies of specific genes were carried out on other drug-resistant tumor cell lines of the colon, such as DLD-1 and SW480, as well as on tumor cell lines of the lung and ovary. In particular, all cell lines that were the object of the analysis, were related to tumors of epithelial type.

The test system of series [5] is HCT116 cells. The following applies: 200 μM 5FU, 72 hr. The method, then: (§2) 100% represent the percentage of living cells at day 0, before starting the treatment.
as §1

The test system of series [6] is HCT116 cells. The following applies: 72 hr.
The subject of series [7] is HCT116p53KO cells. Briefly: Calcein cell viability assay, ibrutinib with or without 5FU. The following applies: 72 hr; for percentage of live HCT116p53KO cells (100% = living cells at day 0): without ibrutinib 177.5%. It counts as cell-based, human. As to the method: as §2, §1
A further series has as its system wt HCT116 cells. Kind of series: cells. The following applies: Homo sapiens, HCT-116, 72 h, read-out: cell mortality.
In the next series the test system is HT-29 colon cancer cells. The following applies: with 200 μM 5FU, 72 hr. The method, then:
Cells were treated for 72 hrs in absence of any drug or in presence of FU 200 μM; 1 μM AVL-292; 1 μM AVL-292+5FU 200 μM; 5 μM AVL-292; 5 μM AVL-292+5FU 200 μM; 10 μM AVL-292; […]; viability was evaluated at the end of the incubation using the calcein assay. FIG. 26a: SW480; FIG. 26b: HT-29.
In the experiments shown in FIG. 26 SW480 and HT-29 colon carcinoma cell lines were grown in vitro for 72 hr in the presence of different concentrations of AVL-292, a small molecule inhibitor of BTK, (Celgene Corporation, Summit, N.J.) (from 0 to 20 μM) and of 5FU (200 μM)+AVL-292 (from 0 to 20 μM); cell viability was evaluated at the end of the incubation using the calcein assay. 100% represent the percentage of living cells at day 0, before starting treatment with the drugs.

In a further series the test system is SW480 colon cancer cells. The following applies: 72 hr. The method, then:
FIG. 26a: SW480; FIG. 26b: HT-29.
as §1
100% represent the percentage of living cells at day 0, before starting treatment with the drugs.

The test system of series [8] is HCT116p53KO cells. Briefly: Caspase 3/7 activation assay. Type of series: cell-based, human. The following applies: 5FU-treated cells in the presence of LFM-A13; luminometric assay. From the text: FIG. 14 is a graph illustrating the results of […] caspase activation assays after 72 hrs and 96 hrs in HCT116 and HCT116p53KO colon carcinoma cells treated with 5FU, BTK inhibition, or the combination of the two.
The results have shown that BTK levels determine the sensitivity of tumor cells to 5FU and that BTK inhibition reverses drug-resistance. […] The same finding is also supported by the graph reported in FIG. 14, evaluating the level of caspase 3/7 activation upon 5FU treatment in HCT116p53KO resistant cells in the presence or in the absence of BTK inhibitor LFM-A13. High levels of caspase 3/7 activation, measured by means of a luminometric assay as RLU/number of cells, are observed in 5FU-treated HCT116p53KO cells only when BTK is inhibited.

The test system of series [9] is SKOV cells (ovarian tumor). Kind of series: Cell death with or without BTK inhibition by LFM-A13. It counts as cell-based, human. The following applies: 200 μM 5FU, 50 μM OxPt, or the combination of the two. From the text:
(§3) The diminution of the resistance to chemotherapeutic drugs following the functional blocking of the gene BTK by means of LFM-A13 was further confirmed by tests conducted in vitro on epithelial tumor cell lines different from those of the colon. In FIG. 11 levels of BTK have been investigated, by means of Western blot, in several different epithelial carcinoma cell lines showing that the kinase is expressed in most of them. In particular, in FIGS. 12a and 12b, graphs were reported of the reversion tests obtained on SKOV cell lines (related to an ovarian tumor) and A549 cell lines (related to a lung tumor).
(§4) In detail, FIG. 12a compares the percentages of cell deaths in the absence (symbol “NT” and “−”) and presence of 200 μM 5FU, 50 μM OxPt, and the combination of the two upon resistant ovarian (SKOV) cells with or without BTK inhibition through the usage of LMFA13. […] FIG. 12b compares the percentages of cell deaths in the absence (symbol “NT” and “−”) and presence of 200 μM 5FU, 50 μM OxPt, and the combination of the two upon resistant lung (A549) cells with or without BTK inhibition through the usage of LMFA13.

In the next series the test system is A549 cells (lung tumor). The series is described as above. Type of series: cell-based, human. The following applies: 200 μM 5FU, 50 μM OxPt, or the combination of the two.
Text: as §3, §4

The test system of series [10] is HCT116p53KO cells. Kind of series: Reversion of 5FU resistance by functional blocking of BTK (cell death). Type of series: cell-based, human. The following applies: 200 μM 5FU, 72 hr; agents compared with each other. From the text:
FIG. 8 is a graph illustrating the reversion of the resistance to a chemotherapeutic drug of tumor cell line HCT116p53KO carried out by means of functional blocking of the gene BTK obtained with different methods.
In FIG. 8, the results of the comparison test are reported in a graph of the functional blocking of the BTK gene by means of plasmids (e.g., encoding p68BTK), siRNA or LFM-A13 in samples of HCT116p53KO cells treated with 5FU. […] In detail, FIG. 8 compares the percentages of cell deaths in the presence of 200 μM 5FU (72 hr treatment) upon wt HCT116 cells and HCT116p53KO drug resistant cells with or without (symbol “empty” and “−”) specific depletions of BTK following transient siRNA transfection (symbol “BTKi”), stable retroviral-mediated RNA interference (symbol “shBTK”), and using LFMA13, an inhibitor compound of BTK.

In series [11] the test system is 5FU-resistant, p53-null (HCT116p53KO, SW480 and HT-29) cell lines. Kind of series: Calcein cell viability assay, ibrutinib dose range. Type of series: cell-based, human. The following applies: highest concentration (range 0 to 30 μM), 72 hours.
Text: as §2

Series [12] deals with HCT116p53KO, SW480, DLD-1 and HCT116 cell lines. The following applies: up to 10 μM, 72 hours.
The subject of series [13] is HCT116p53KO cells. Briefly: Short-term viability under targeted therapy with or without ibrutinib (MTT). Type of series: cell-based, human. The following applies: 25 μg/ml bevacizumab, 10 μg/ml cetuximab or 75 μg/ml panitumumab alone, 72 hr.
[14] abbreviates: dasatinib 50 mpk oral gavage once a day 5 days a week.
Setting [15] is: ibrutinib 25 mpk oral gavage once daily 5 days a week.
Setting [16] is: 5FU 60 mg/kg ± dasatinib 50 mpk, p<0.05.

These results are taken from US9820987B2, “Modulator compounds of drug resistance in epithelial tumor cells” (BIONSIL S.R.L. in Liquidazione, priority 2007, dated 2017).

Like-named read-outs stand apart in the source and are kept apart here.

Broadly, the mortality is the share of the test organisms that died.

For the compound `O=c1[nH]cc(F)c(=O)[nH]1` [5FU, 5-fluorouracil], the “effective response (share of the cells)” value in series [1] is given as 10-15%. Moreover, the “cell death (photographs)” value with HCT116p53KO cells [2] is listed as “no cell death”; in the series with HCT116 cells [6] (10 μM 5FU, 10 μM ibrutinib, singularly or in combination), “no cell death”; in the series with HCT116 cells [6] (5FU 200 μM), “massive cell death”. Moreover, the “reduction of the tumor volume (significance)” value with HCT116p53KO xenografts (5FU 60 mpk, ibrutinib 25 mpk, 5FU+Ibr25 Vs. Ctrl p=0.012, Vs. Ibr25 p=0.039) was “did not cause a significant reduction”. The “average volume of the tumor masses” value in the series with HCT116p53KO xenografts (setting [14]) is listed as “≈ 530 mm^3”; with HCT116p53KO xenografts (setting [15]) it was “≈ 530 mm^3”; with HCT116 xenografts (5FU 60 mg/kg, dasatinib 50 mpk), 226 mm^3; with HCT116 xenografts (5FU 60 mpk, ibrutinib 25 mpk) it was “≈ 226 mm^3”; with HCT116 xenografts (5FU 60 mpk, ibrutinib 50 mpk), “≈ 226 mm^3”. The “increase of the tumor doubling time versus untreated (or dasatinib-treated) group” value in the series with HCT116 xenografts (setting [16]) is reported as “significant”. For the same compound, the “reduction in the tumor volume versus untreated (or dasatinib-treated) group” value in the series with HCT116 xenografts (setting [16]) was “significant”. Besides, the “increase of the tumor doubling time” value is listed as “significant” in the series on HCT116 xenografts (5FU 60 mpk, ibrutinib 25 mpk) and “significant” in the series on HCT116 xenografts (5FU 60 mpk, ibrutinib 50 mpk). In addition, the “reduction in the tumor volume” value with HCT116 xenografts (5FU 60 mpk, ibrutinib 25 mpk) is reported as “significant”; in the series on HCT116 xenografts (5FU 60 mpk, ibrutinib 50 mpk) it was “significant”. Also, the results for the “response to the cytotoxic effect of 5FU” value (in series [3]; in the series with HCT116 cells [5]) were “resistant” and “sensitive”, respectively. For the same compound, the results for the mortality at 200 µM (in series [4]; with wt HCT116 cells) were less than 10% and more than 95%, respectively. Moreover, the effect on viability result with HCT116p53KO cells [7] (5FU 200 μM alone) was “little effect”.
In the case of `C=CC(=O)Nc1cccc(Nc2nc(Nc3ccc(OCCOC)cc3)ncc2F)c1` [AVL-292], in the series on HT-29 colon cancer cells, the “AVL-292 concentration from which sensitization to the cytotoxic effect of 5FU starts” value is not below 20 µM. The cell death in the series with SW480 colon cancer cells (5 μM combined with 200 μM 5FU) came out at 66.8%; in the series on SW480 colon cancer cells (10 μM alone), 19.9%; in the series with SW480 colon cancer cells (20 μM alone) it was 65.3%.
With `C/C(O)=C(\C#N)C(=O)Nc1cc(Br)ccc1Br` [LFM-A13, (2Z)-2-cyan-N-(2,5-dibromophenyl)-3-hydroxy-2-butenamide], in the series with HCT116p53KO cells [8], the “caspase 3/7 activation” value is reported as “High levels”. Moreover, the “percentage of cell deaths with LFM-A13 compared to without” value (in series [9]; in the series on A549 cells (lung tumor)) was “high percentage of tumor cell death” throughout. The “level of reversion to the drug resistance, expressed as percentage fraction of dead cells” value in the series on HCT116p53KO cells [10] was “comparable”.
As for `Cc1nc(Nc2ncc(C(=O)Nc3c(C)cccc3Cl)s2)cc(N2CCN(CCO)CC2)n1` [dasatinib], the “average volume of the tumor masses” value is “≈ 355 mm^3” with HCT116p53KO xenografts (setting [14]) and “≈ 343 mm^3” in the series on HCT116 xenografts (5FU 60 mg/kg, dasatinib 50 mpk).
For `C=CC(=O)N1CCC[C@@H](n2nc(-c3ccc(Oc4ccccc4)cc3)c3c(N)ncnc32)C1` [ibrutinib], the “average volume of the tumor masses” value in the series on HCT116p53KO xenografts (setting [15]) is on record as “≈ 760 mm^3”; with HCT116 xenografts (5FU 60 mpk, ibrutinib 25 mpk), “≈ 347 mm^3”; in the series with HCT116 xenografts (5FU 60 mpk, ibrutinib 50 mpk), “≈ 372 mm^3”. Besides, the “percentage of live HCT116p53KO cells (100% = living cells at day 0)” value is 130.2% in the series on HCT116p53KO cells [7] (10 μM ibrutinib) and 116.1% in the series on HCT116p53KO cells [7] (20 μM ibrutinib). For the same compound, the “number of cells (100% = living cells at day 0)” value in [11] was “below 100%”. Besides, the cytotoxicity result in series [12] is given as “not cytotoxic”.
As to “bevacizumab: monoclonal antibody used in anti-cancer therapy for targeting VEGF”, the cell viability entry in the series with HCT116p53KO cells [13] was “does not affect”.
As to “panitumumab: monoclonal antibody used in anti-cancer therapy for targeting EGFR”, in the series on HCT116p53KO cells [13], the cell viability result was “does not affect”.
